Data on three compounds can be found in paper PMC10439028, “SGLT5 is the renal transporter for 1,5-anhydroglucitol, a major player in two rare forms of neutropenia” (Cellular and Molecular Life Sciences: CMLS, 2023).

Assay [1] has as its target T1, human SGLT5 (Homo sapiens, UniProt A0PJK1).
T1 construct: expressed in transfected cells
T1 sequence (A0PJK1 1-596): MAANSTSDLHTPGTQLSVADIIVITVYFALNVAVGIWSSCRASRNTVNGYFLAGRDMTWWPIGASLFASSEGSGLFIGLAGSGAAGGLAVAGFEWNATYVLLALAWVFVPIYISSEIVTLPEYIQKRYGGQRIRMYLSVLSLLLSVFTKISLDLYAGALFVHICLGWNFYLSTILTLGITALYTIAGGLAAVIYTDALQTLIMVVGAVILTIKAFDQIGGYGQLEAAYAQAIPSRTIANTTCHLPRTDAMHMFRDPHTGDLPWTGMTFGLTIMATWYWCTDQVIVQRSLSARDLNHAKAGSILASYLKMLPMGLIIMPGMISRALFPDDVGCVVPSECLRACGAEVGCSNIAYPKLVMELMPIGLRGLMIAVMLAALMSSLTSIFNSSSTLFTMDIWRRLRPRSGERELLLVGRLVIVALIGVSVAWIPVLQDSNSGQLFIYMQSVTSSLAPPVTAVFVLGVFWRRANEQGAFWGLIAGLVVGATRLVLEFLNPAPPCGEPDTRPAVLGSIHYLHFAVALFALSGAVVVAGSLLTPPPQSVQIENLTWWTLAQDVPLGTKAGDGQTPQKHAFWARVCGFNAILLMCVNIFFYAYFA
Briefly: Radioactive uptake assay (saturation kinetics) in HEK293T cells stably overexpressing human SGLT5-iso2. The class given is cell-based. The settings on record: for hSGLT5 Vmax: transport of the labelled substrate, Fig. 2B. An excerpt:
This assay was used to study (1) the transport of 1,5-AG or mannose by the HEK293T model cell lines that stably overexpressed the various transporters or by the transiently transfected HEK293T cells using JetPEI® as a transfection agent prepared as described above and (2) the substrate specificity of each transporter.
(§1) For a typical transporter experiment we proceeded as follows. […] To minimize cell loss during the various washing steps in the radioactive uptake experiments, the wells where the cells were seeded were previously coated with poly- D-lysine, which improved their adhesion to the plastic surface of the wells. For this, each well of the 24-well plates was treated with 200 µl of a 0.01% poly-L-lysine solution for 10 min, washed 3 times with 1 ml of sterilized water and left to dry for 2 h. Only then could the 24-well plates be seeded with the appropriate cell lines and cultured overnight at 37 °C in 5% CO2.
On day two, the radioactive uptake assay could be performed. The cell culture media was removed by aspiration and cells were incubated for 20 min at 37 °C and 5% CO2 with a basal medium (10 mM HEPES, pH 7.4, 1 mM CaCl2, 1 mM MgCl2, 2 mM KCl) containing 140 mM choline chloride to deplete intracellular […] ions. This was subsequently replaced with the uptake medium (basal medium + 140 mM NaCl, 25 μM cytochalasin B, 1 mg/ml BSA) containing either radioactive U-[^14C]-mannose (15,000 cpm/well) or 2-[^3H]-1,5-AG (30,000 cpm/well) and respectively, non-radioactive mannose or 1,5-AG, at the required concentration in the experiment. […]
(§2) Once the uptake medium was added to the cells, the plates were incubated at 37 °C in 5% CO2 during the required time. […] In each experiment, the transport activities were calculated after subtracting a “blank” value, corresponding to the radioactivity in the appropriate control cells (HEK293T cells that were stably or transiently transfected with one of the parent plasmids pEF6/MycHisA, pEF6HisB, pUB82 or pUB83 with no inserted cDNA) that were analyzed in parallel.

The target of assay [2] is T1, human SGLT5. As to the kind of experiment: Inhibition of 10 µM radiolabelled 1,5-AG transport in HEK293T cells overexpressing human SGLT5. Type of assay: cell-based. As for the experimental part:
as §1
On day two, the radioactive uptake assay could be performed. The cell culture media was removed by aspiration and cells were incubated for 20 min at 37 °C and 5% CO2 with a basal medium (10 mM HEPES, pH 7.4, 1 mM CaCl2, 1 mM MgCl2, 2 mM KCl) containing 140 mM choline chloride to deplete intracellular […] ions. This was subsequently replaced with the uptake medium (basal medium + 140 mM NaCl, 25 μM cytochalasin B, 1 mg/ml BSA) containing either radioactive U-[^14C]-mannose (15,000 cpm/well) or 2-[^3H]-1,5-AG (30,000 cpm/well) and respectively, non-radioactive mannose or 1,5-AG, at the required concentration in the experiment. Importantly, when measuring the transport of mannose, the uptake media also contained 0.5 mM glucose. This resulted from the need to reduce the background transport of mannose in control HEK293T cells in order to optimize the transport assay for this sugar in our model cell lines. Consequently, after testing various inhibitors (Supplementary Fig. 1), 0.5 mM glucose + 25 µM cytochalasin B appeared as the best combination to decrease efficiently the endogenous transport of mannose in control cells without affecting the transport of mannose in model cell lines overexpressing SGLT4 and SGLT5. Therefore in the radioactive uptake assays for mannose, the uptake medium was: basal uptake medium + 140 mM NaCl, 25 μM cytochalasin B, 0.5 mM glucose and 1 mg/ml BSA to which we added U-[^12C + ^14C]-mannose as described above.
as §2
The transport experiments to study the specificity of SGLT4 or SGLT5, were performed in the presence of 10 µM U-[^14C + ^12C]-mannose (for SGLT4) or 2-[^3H + ^1H]-1,5-AG (for SGLT5) and increasing concentrations of various sugars tested. The transport experiments to study the inhibition of empagliflozin, dapagliflozin or remogliflozin, on the transport of 1,5-AG by SGLT5 or its variants were performed in the presence of 10 µM 2-[^3H + ^1H]-1,5-AG and increasing concentrations of the various gliflozins tested.

Where [3] appears, read: substrate 10 μM 1,5-AG, unlabelled sugars, Fig. 3C, read-out: hSGLT5 IC50.

Like-named read-outs stand apart in the source and are kept apart here.

As usually defined, the IC50 is the concentration at which inhibition is half-maximal. With `OC[C@H]1OC[C@H](O)[C@@H](O)[C@@H]1O` [1,5-AG, 1,5-anhydroglucitol], the Vmax at human SGLT5 [1] (hSGLT5 WT, Table 1 experiments) is 17.3 ± 0.3 pmol/min/10^5cells. For the same compound, the “hSGLT5 Vmax” value at human SGLT5 [1] was found to be 14.1 ± 0.8 pmol/min/10^5 cells. For the same compound, the IC50 on human SGLT5 [2] (10 µM 2-[1H+3H]-1,5-AG, Supplementary Fig. 7, read-out: IC50 for 1,5-AG, SGLT5-WT) stood at 162 µM; on human SGLT5 [2] (setting [3]), 167 µM. In addition, at human SGLT5 [2] (SGLT5), the “preference of 1,5-AG over glucose, difference in Ki” value is 20 fold.
With `OC[C@H]1OC(O)[C@@H](O)[C@@H](O)[C@@H]1O` (some centres unmarked) [Mannose, mannose], the “hSGLT5 Vmax” value at human SGLT5 [1] amounted to 44.7 ± 12.4 pmol/min/10^5 cells. At human SGLT5 [2] (setting [3]), the IC50 stood at 380 µM.
For the compound `OC[C@H]1O[C@@H](c2ccc(Cl)c(Cc3ccc(O[C@H]4CCOC4)cc3)c2)[C@H](O)[C@@H](O)[C@@H]1O` [empagliflozin], the IC50 at human SGLT5 [2] (10 µM 2-[1H+3H]-1,5-AG, Fig. 5C, read-out: IC50 for SGLT5-mediated 1,5-AG transport (gliflozins)) worked out at 0.7 µM.
